Measurements as given in PubChem BioAssay (NCI).
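Cultured in 96-well plates, cells were exposed to test compound for 48 hours across five concentrations. Definition used: TGI = concentration required for complete inhibition of growth.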

What was measured:
Test in all cases: NCI-60 cell line screen, 48 h
SN12C renal = test system: SN12C renal
M14 melanoma = test system: M14 melanoma
HCT-15 colon = test system: HCT-15 colon
CCRF-CEM leukemia = test system: CCRF-CEM leukemia
MALME-3M melanoma = test system: MALME-3M melanoma
SK-MEL-2 melanoma = test system: SK-MEL-2 melanoma
MDA-N = test system: MDA-N
NCI-H226 lung = test system: NCI-H226 lung
786-0 renal = test system: 786-0 renal
HS 578T breast = test system: HS 578T breast
SNB-75 CNS = test system: SNB-75 CNS

| Compound | TGI (SN12C renal) | TGI (M14 melanoma) | TGI (HCT-15 colon) | TGI (CCRF-CEM leukemia) | TGI (MALME-3M melanoma) | TGI (SK-MEL-2 melanoma) | TGI (MDA-N) | TGI (NCI-H226 lung) | TGI (786-0 renal) | TGI (HS 578T breast) | TGI (SNB-75 CNS) |
| --- | --- | --- | --- | --- | --- | --- | --- | --- | --- | --- | --- |
| O=S(=O)(O)c1ccc2cc(N=Nc3c(O)ccc4ccccc34)ccc2c1 | > 100 µM | > 100 µM | > 100 µM | > 100 µM | > 100 µM | > 100 µM | > 100 µM | > 100 µM | > 100 µM | > 100 µM | > 100 µM |
| CNC(=O)N1N[C@H](c2ccccc2)[C@@H]1c1ccccc1 | 62.7 µM | 56.1 µM | 64 µM | > 100 µM | 72.6 µM | 32 µM | > 100 µM | 32.8 µM | > 100 µM | > 100 µM | 92.2 µM |
| O=c1[nH]c2nc[nH]c2c(=O)n1C1CCCCC1 | > 100 µM | > 100 µM | > 100 µM | > 100 µM | > 100 µM | > 100 µM | > 100 µM | > 100 µM | > 100 µM | > 100 µM | > 100 µM |
| O=C1/C(=C/c2cccs2)NC(=S)N1CN1CCCCC1 | > 100 µM | > 100 µM | > 100 µM | > 100 µM | > 100 µM | > 100 µM | > 100 µM | > 100 µM | > 100 µM | > 100 µM | > 100 µM |
| N#Cc1c(-c2ccccc2)cc(-c2ccccc2)n(C2OCC(O)C(O)C2O)c1=S (stereo not given) | – | 53.3 µM | 60.6 µM | 93.1 µM | 81 µM | 62.3 µM | 55 µM | 35.9 µM | 49.1 µM | > 100 µM | 66.3 µM |
| COC1=C2CC(C)CC(OC)C(OC(=O)CCCN)C(C)/C=C(\C)C(OC(N)=O)C(OC)/C=C\C=C(/C)C(=O)NC(=CC1=O)C2=O (stereo not given) | 16.1 µM | 17.6 µM | 14.5 µM | 3.59 µM | 14.9 µM | 26.9 µM | 20.7 µM | 33.3 µM | 18.1 µM | 40.7 µM | 36.3 µM |
| O=C(NCCCCCCCN1CCCCCCC1)C(C1CCCCC1)C1CCCCC1 | 26.9 µM | 3.97 µM | 15.2 µM | 46.9 µM | 8.53 µM | 22.2 µM | 21.8 µM | 23.5 µM | 12.6 µM | 51.5 µM | 23.1 µM |
| CC(=O)NCCCCN(CCCNC(C)=O)C(=O)OCc1ccccc1 | > 100 µM | > 100 µM | > 100 µM | > 100 µM | > 100 µM | > 100 µM | > 100 µM | > 100 µM | > 100 µM | > 100 µM | > 100 µM |
| C[C@@]1(OC(=O)c2cc([N+](=O)[O-])cc([N+](=O)[O-])c2)C[C@@H]2CCCC[C@@H]21 | > 100 µM | > 100 µM | > 100 µM | > 100 µM | > 100 µM | > 100 µM | > 100 µM | > 100 µM | > 100 µM | > 100 µM | > 100 µM |
| CN1CCC/C1=C1/C(=O)N(c2ccccc2)N=C1c1ccc[nH]1 | > 100 µM | > 100 µM | > 100 µM | > 100 µM | > 100 µM | > 100 µM | > 100 µM | > 100 µM | > 100 µM | > 100 µM | > 100 µM |
| CSc1c(C#N)c(S)n(-c2ccc(Cl)cc2)c(=O)c1C#N | > 100 µM | > 100 µM | > 100 µM | > 100 µM | > 100 µM | > 100 µM | > 100 µM | > 100 µM | > 100 µM | > 100 µM | > 100 µM |
| c1cncc(CSc2ncnc3nc[nH]c23)c1 | > 100 µM | > 100 µM | > 100 µM | > 100 µM | > 100 µM | > 100 µM | > 100 µM | > 100 µM | > 100 µM | > 100 µM | > 100 µM |
| C[C@H](NC(=O)CNC(=O)CCCCCC(=O)NCC(=O)N[C@@H](C)C(=O)OCc1ccccc1)C(=O)OCc1ccccc1 | > 100 µM | > 100 µM | > 100 µM | > 100 µM | > 100 µM | > 100 µM | > 100 µM | > 100 µM | > 100 µM | > 100 µM | > 100 µM |
| NC(=O)c1sc2nc3ccccc3n2c1N | – | > 100 µM | > 100 µM | > 100 µM | > 100 µM | 99.2 µM | > 100 µM | > 100 µM | > 100 µM | > 100 µM | 79.1 µM |
| CC(=O)N(CC(=O)C(=O)NNc1ccoc1)c1ccc(Cl)cc1 | > 100 µM | > 100 µM | > 100 µM | > 100 µM | > 100 µM | > 100 µM | > 100 µM | > 100 µM | > 100 µM | > 100 µM | > 100 µM |
| CSc1nc2c3ccccc3ccn2c1C(=O)N/N=C/c1ccccc1 | > 100 µM | > 100 µM | > 100 µM | > 100 µM | > 95.1 µM | > 100 µM | > 100 µM | > 100 µM | 42.3 µM | > 71.6 µM | > 71.2 µM |
| CCOC(=O)/C=C\C(C#N)(C#N)N=Cc1ccsc1 | 36.3 µM | 9.5 µM | 10.1 µM | 1.02 µM | 5.35 µM | 33.1 µM | 24.5 µM | 34.2 µM | 5.01 µM | 48.4 µM | 27.8 µM |
| COc1ccc(NC/C=C/C(=C/COC(C)=O)OC(C)=O)cc1 | – | 3.19 µM | 5.1 µM | 5.12 µM | 5.57 µM | 5.58 µM | 4.07 µM | 51.7 µM | 2.44 µM | 6.12 µM | 20.5 µM |
